Laboratory results from US12636370B2, “Combination therapy for treatment of cancer” (Institute For Cancer Research, priority 2019, dated 2026).

How the values were obtained:
Type in all cases: cell-based
[1] = system: INSR and downstream MTOR, AKT and MAPK signaling; test: Kinase signaling in BBD-R cells (MIB-MS, phospho-blot); conditions: for phosphorylation of P70S6K (T359): BBD-R cells (MZ1-R, ARV-R), 1 μM, 4 hours
Method: Reduced MIB-binding of kinases involved in cell cycle (WEE1, CHEK1, CDK2, CDK6 and PLK1), as well as kinases required for translation (EIF2AK1, EIF2AK2, and EIF2AK4) were also observed following GSK529A treatment. […] Enrichment maps of pathways repressed by INSR inhibition generated from MIB-MS profiles of OVCAR8 cells treated with GSK529A (1 μM) treatment for 48 hours. Statistical differences in protein log 2 LFQ z-scores comparing GSK529A to control treated MZ1-R cells was determined by paired T-Test Benjamini- Hochberg adjusted p values at FDR of <0.05 using Perseus Software. […] Enrichment maps were generated in Cytoscape using the Enrichment Map app v2.2.1. (data not shown).

[2] = system: OVCAR8 MZ1-R cells; test: CellTiter-Glo cell viability, OVCAR8 MZ1-R cells; conditions: escalating doses, 5 days; for cell viability of MZ1-R cells compared with parental cells: OVCAR8 MZ1-R; for sensitivity of MZ1-R cells relative to JQ1-R cells or parental cells: OVCAR8, inhibitor screen
[3] = system: OVCAR8 ARV-R cells; test: CellTiter-Glo cell viability, OVCAR8 ARV-R cells; conditions: escalating doses, 5 days
[4] = system: BET proteins (BRD2, BRD3, BRD4); test: Western blot of BET proteins, OVCAR8 ARV-R cells
[5] = system: OVCAR8 ARV-R cells; test: Apoptosis by cleaved PARP Western blot, OVCAR8 ARV-R cells
[6] = system: BET proteins (BRD2, BRD3, BRD4); test: Western blot of BET protein levels, OVCAR8 parental cells
[7] = system: OVCAR8 cells; test: Single-run proteome analysis and RNA-seq, OVCAR8 cells; conditions: 48 hours, single-run proteome analysis
Method: Enrichment maps of pathways repressed by short-term BBD generated from single-run proteome profiles of OVCAR8 cells treated with BBDs (MZ1 or ARV825) for 48 hours were prepared (data not shown). Statistical differences in protein log 2 LFQ z-scores comparing BBDs or BBIs to control treated cells was determined by paired T-Test Benjamini-Hochberg adjusted p values at FDR of <0.05 using Perseus Software. […] Enrichment maps were generated in Cytoscape using the Enrichment Map app v2.2.1. […] Statistical differences in protein log 2 LFQ z-scores comparing BBDs or BBIs to control treated cells was determined.

[8] = system: OVCAR8 JQ1-R cells; test: CellTiter-Glo cell viability, OVCAR8 JQ1-R cells; conditions: escalating doses, 5 days
[9] = system: BET proteins (BRD2, BRD3, BRD4); test: Western blot of BET proteins and BRD4 targets, OVCAR8 MZ1-R cells; conditions: Western blot
[10] = system: BET proteins, FOSL1, MYC; test: Western blot of BET proteins and BRD4 targets, JQ1-R cells
[11] = system: OVCAR8 MZ1-R cells; test: Apoptosis by Western blot, OVCAR8 MZ1-R cells
[12] = system: OVCAR8 JQ1-R cells; test: Apoptosis by cleaved PARP Western blot, OVCAR8 JQ1-R cells
[13] = system: OVCAR8 cells; test: CellTiter-Glo cell viability, OVCAR8 parental cells; conditions: dose escalation, 5 days
[14] = system: translation markers, RNA pol II, MYC; test: Western blot of translation, BRD4-targets and MYC signaling, OVCAR8 cells; conditions: 500 nM, 48 hours
[15] = system: BRD2, BRD3 or BRD4 RNA; test: qRT-PCR of BRD RNA levels, OVCAR8 MZ1-R cells; conditions: 1 μM, 48 hours
[16] = system: KURAMOCHI, COV362 and OVCAR5 MZ1-R cells; test: CellTiter-Glo cell viability, KURAMOCHI, COV362 and OVCAR5 MZ1-R cells; conditions: COV362 and OVCAR5, escalating doses, 5 days
[17] = system: BET proteins (BRD2, BRD4); test: Western blot of BET proteins, KURAMOCHI, COV362 and OVCAR5 MZ1-R cells
[18] = system: OVCAR5 JQ1-R cells; test: Growth curves, OVCAR5 JQ1-R cells

Structure (SMILES): CC(C)C[C@H](NC(=O)[C@H](Cc1ccccc1)NC(=O)c1cnccn1)B(O)O [bortezomib]
- phosphorylated RNA pol II (S2) ([1]; OVCAR8 MZ1-R cells, 48 hour RAD001 treatment, with or without bortezomib): could be reversed by bortezomib treatment

Structure (SMILES): Cc1ncsc1-c1ccc([C@H](C)NC(=O)[C@@H]2C[C@@H](O)CN2C(=O)[C@@H](NC(=O)COCCCOCCNC(=O)C[C@@H]2N=C(c3ccc(Cl)cc3)c3c(sc(C)c3C)-n3c(C)nnc32)C(C)(C)C)cc1 [ARV-771]
- cell viability of MZ1-R cells compared with parental cells [2]: cross-resistant
- cell viability of ARV-R cells compared with parental cells [3]: failed to reduce BET proteins, block growth or induce apoptosis
- BET protein levels [4]: failed to reduce BET proteins, block growth or induce apoptosis
- apoptosis [5]: failed to reduce BET proteins, block growth or induce apoptosis

Structure (SMILES): Cc1sc2c(c1C)C(c1ccc(Cl)cc1)=N[C@@H](CC(=O)Nc1ccc(OCCOCCOCCOCCNc3cccc4c3C(=O)N(C3CCC(=O)NC3=O)C4=O)cc1)c1nnc(C)n1-2 (stereo partly shown) [ARV825]
- BET protein levels [6]: degraded BET proteins in a concentration-dependent manner
- global protein level changes [7]: uniquely downregulated proteins involved in ribosome and translation signaling
- cell viability of MZ1-R cells compared with parental cells [2]: inhibited cell viability
- cell viability of ARV-R cells compared with parental cells [3]: rightward shift
- cell viability of JQ1-R cells [8]: inhibited cell viability
- BET protein levels [9]: reduced BET proteins
- BET protein levels [4]: insufficient to degrade BRD2, BRD3 or BRD4
- BET protein levels [10]: degraded BET proteins
- BRD4 target (FOSL1, MYC) protein levels [10]: reduced MYC/FOSL1 protein levels
- apoptosis [11]: promoted apoptosis
- apoptosis [12]: induced apoptosis

Structure (SMILES): NC1(c2ccc(-c3nc4ccn5c(=O)[nH]nc5c4cc3-c3ccccc3)cc2)CCC1 [MK-2206]
- sensitivity of MZ1-R cells relative to JQ1-R cells or parental cells [2]: more sensitive
- cell viability of ARV-R cells compared with parental cells [3]: reduced cell viability more than in parental cells

Structure (SMILES): CCC(=O)N1CCN(c2ccc(-n3c(=O)ccc4cnc5ccc(-c6cnc7ccccc7c6)cc5c43)cc2C(F)(F)F)CC1 [Torin-1]
- BET protein levels [9]: reduced BRD2 and BRD4 levels
- BET protein levels [4]: reduced BRD2 and BRD4 levels
- phosphorylation of P70S6K (T359) [1]: reduced MTOR-mediated phosphorylation of P70S6K (T359)

Structure (SMILES): CS(=O)(=O)N1CCN(Cc2cc3nc(-c4cccc5[nH]ncc45)nc(N4CCOCC4)c3s2)CC1 [GDC-0941]
- cell viability of MZ1-R cells compared with parental cells [2]: more sensitive
- cell viability of JQ1-R cells [8]: more sensitive

Structure (SMILES): COC[C@@H](C)NC1CCC(Nc2cc(-c3cccc(NCC4(C#N)CCOCC4)n3)c(Cl)cn2)CC1 (stereo partly shown) [NVP-2]
- cell viability of MZ1-R cells compared with parental cells [2]: more sensitive
- cell viability of JQ1-R cells [8]: more sensitive

Structure (SMILES): COc1ncccc1-c1cnn2ccc(N3CCN(C(=O)OC(C)C)CC3)nc12 [LP-935509]
- sensitivity of MZ1-R cells relative to JQ1-R cells or parental cells [2]: more sensitive
- cell viability of ARV-R cells compared with parental cells [3]: reduced cell viability more than in parental cells

Structure (SMILES): O=C(O)c1ccc2c(c1)nc(Nc1cccc(Cl)c1)c1ccncc12 [Cx-4945]
- cell viability of MZ1-R cells compared with parental cells [2]: more sensitive
- cell viability of JQ1-R cells [8]: more sensitive

Structure (SMILES): Cc1sc2c(c1C)C(c1ccc(Cl)cc1)=N[C@@H](CC(=O)OC(C)(C)C)c1nnc(C)n1-2 [JQ1]
- GI50 [13]: 133 nM
- RNA pol II (S2) phosphorylation [14]: not observed with JQ1
- cell viability of MZ1-R cells compared with parental cells [2]: reduced cell viability to a greater extent than parental cells
- cell viability of ARV-R cells compared with parental cells [3]: reduced cell viability to a greater extent than parental cells
- cell viability of JQ1-R cells [8]: unaffected by increasing doses of JQ1
- BRD4 target (FOSL1, MYC) protein levels [10]: failed to reduce BRD4 target FOSL1

Structure (SMILES): CS(=O)(=O)CCNCc1ccc(-c2ccc3ncnc(Nc4ccc(OCc5cccc(F)c5)c(Cl)c4)c3c2)o1 [lapatinib]
- cell viability of ARV-R cells compared with parental cells [3]: reduced cell viability more than in parental cells
- BET protein levels [9]: reduced BRD2 and BRD4 levels
- BET protein levels [4]: reduced BRD2 and BRD4 levels
- phosphorylation of P70S6K (T359) [1]: reduced MTOR-mediated phosphorylation of P70S6K (T359)
- BRD2, BRD3 or BRD4 RNA levels [15]: unaffected
- cell viability / growth of MZ1-R cells compared with parental cells [16]: significantly blocked cell growth to a greater extent than parental cells
- BET protein levels [17]: reduced BRD2 and BRD4 proteins
- growth inhibition [18]: minimal growth inhibition

Structure (SMILES): CCN(CCO)CCCC(C)Nc1ccnc2cc(Cl)ccc12 (stereo not shown) [hydroxychloroquine]
- cell viability of MZ1-R cells compared with parental cells [2]: more sensitive
- cell viability of JQ1-R cells [8]: more sensitive

Structure (SMILES): CNC(=O)c1ccccc1Nc1cc(Nc2ccc(N3CCOCC3)cc2OC)ncc1C(F)(F)F [PND-1186]
- sensitivity of MZ1-R cells relative to JQ1-R cells or parental cells [2]: more sensitive

Structure (SMILES): CNc1ncc2cc(-c3cc(NC(=O)NCCC(C)(C)C)c(F)cc3C)c(C)nc2n1 [LY3009120]
- cell viability of JQ1-R cells [8]: most profound impact on JQ1-R cell viability

Structure (SMILES): O=C(c1cc(Cc2n[nH]c(=O)c3ccccc23)ccc1F)N1CCN(C(=O)C2CC2)CC1 [olaparib]
- cell viability of MZ1-R cells compared with parental cells [2]: more sensitive
- cell viability of JQ1-R cells [8]: more sensitive
